Legend:
Format in all cases: cell-based
[1] = system: tumor cells such as breast cancer (MDA-MB-468) and liver cancer (HepG2); experiment: MTT assay, inhibition of tumor cell proliferation; conditions: 48 h, compared with positive control WP1066, IC50 values only in FIG. 1
Description: Tumor cells in logarithmic growth phase were collected; the cell suspension was diluted to a density of 5×10^4 cells/mL; 100 uL of the cell suspension was transferred to each hole of a 96-well plate; DMSO was used as a solvent for negative control; (2E)-3-(6-bromo-2-pyridyl)-2-cyano-N-[(1S)-1-phenylethyl]-2-acrylamide (WP1066CAS: 857064-38-1, with a formula
was used as a positive control; the naphthylurea compounds IY210216D-1, ID210203C-1 and IY210316B-1 were diluted with DMSO and added into the 96-well plate to a final concentration of 0.1, 0.3, 1, 3, 10, 30, 100 and 300 μmol/L; the 96-well plate was incubated for 48 h; 10 μL of MTT solvent (5 mg/mL) was added into each well; the 96-well plate was incubated at 37° C. for 4 h; a culture supernatant was discarded; 150 μL of DMSO was added into each well; the 96-well plate was shaken for 10 min on a plate shaker; an optical density (OD) of the resulting product was measured at a wavelength of 490 nm by an ELISA reader. Test results were recorded. A cell growth curve was drawn with the dosage of each compound as abscissa and the absorbance value as ordinate. The statistical results of the half inhibition rate (IC50 value) of tumor cells by the compounds IY210216D-1, ID210203C-1 and IY210316B-1 were shown in FIG. 1.

[2] = system: JAK2/STAT3 signal axis in MDA-MB-468 or HepG2 cells; experiment: Western blot of JAK2/STAT3 signal axis protein expression; conditions: MDA-MB-468 (0, 0.5, 1 μM) or HepG2 (0-8 μM), 48 h, vs solvent control; dose-dependent
Description: MDA-Mb-468 or HepG2 cells in logarithmic growth phase were inoculated in a 6-well plate, with 8×10^5 cells per well. After cell adhesion, the compound ID210203C-1 was added until a final concentration thereof was 0, 0.5, 1 or 0, 0.5, 1, 2, 4 and 8 μM respectively. After about 48 hours, the cells were lysed with RIPA lysate and proteins were collected for Western blot analysis. The protein expressions were respectively detected through the anti-JAK2, p-JAK2, STAT3, p-STAT3, CyclinD1, p-AKT, p-ERK and β-actin antibodies.

[3] = system: HepG2 cells; experiment: Cell cycle distribution by flow cytometry (PI), HepG2; conditions: hepatoma cells (HepG2), 2, 4, 8 μM, 48 h, vs DMSO
Description: (§1) MDA-MB-468 or HepG2 cells were harvested during log phase, digested, centrifuged and prepared into a single cell suspension; the number of the cells in the single cell suspension was counted; the cells were seeded into a 12-well plate, with 2×10^5 cells per well; three wells were used as a parallel control design; 16 hours after seeding, the cells were treated with the compounds. With DMSO as a solvent, the final concentrations of the compounds IY210216D-1 and ID210203C-1 in HepG2 cell suspension were 0, 2, 4 and 8 μM, respectively, and the final concentrations of the compounds IY210216D-1 and ID210203C-1 in MDA-MB-468 cell suspension were 0 and 2 μM, respectively. 48 hours later, the cells were digested with trypsin and resuspended; the number of the cells in the cell suspension was counted and diluted to 5×10^5 cells/mL; after the digestion was completed, the cell suspension was centrifuged; the supernatant was discarded; the pellet was washed twice with PBS (each time the mixture was centrifuged 2000 rpm for 5 min); the supernatant was discarded; a fixative comprising 980 μL of 70% cold ethanol and 20 μL of 5% BSA (a small amount of BSA reduces cellular stress and damage) was added to each microcentrifuge tube, so that the cells were fixed overnight at 4° C.; the fixative is discarded; the cells were washed three times in PBS to remove residual fixative (each time the mixture was centrifuged at 1000 rpm for 3 min); a DNA quantification kit is used to measure the content of DNA according to the following instruction (Suo Laibao, Beijing): each sample was incubated in 100 μL of RNase A at 37° C. for 30 min; 500 μL of PI (propidium iodide) was added to each sample; each sample was incubated at room temperature for 30 min in the dark; the cell cycle was analyzed by a flow cytometry and a ModFit software; and Graphpad prism 6.0 was used to estimate the percentage of a cell population in the different phases of the cell cycle.

[4] = system: MDA-MB-468 cells; experiment: Cell cycle distribution by flow cytometry (PI), MDA-MB-468; conditions: breast cancer cells (MDA-MB-468), 2 μM, 48 h, vs DMSO
Description: as §1

[5] = system: HepG2 cells; experiment: Apoptosis by Annexin V-FITC/PI flow cytometry, HepG2; conditions: HepG2, 0, 2, 4, 8 μM, 48 h, vs control group
Description: (§2) The MDA-MB-468 or HepG2 cells were harvested during log phase, digested, centrifuged and prepared into a single cell suspension; the number of the cells in the cell suspension was counted; the cells were seeded into a 12-well plate, with 2×10^5 cells per well; three wells were used as a parallel control design; 16 hours after seeding, the cells were treated with the compounds.
(§3) With DMSO as a solvent, the final concentrations of the compounds IY210216D-1 and ID210203C-1 in HepG2 cell suspension were 0, 2, 4 and 8 μM, respectively, and the final concentrations of the compound IY210316B-1 in MDA-MB-468 cell suspension were 0 and 0.12 μM, respectively. […]

[6] = system: HepG2 liver cancer cells; experiment: Q-PCR of mRNA level of cell cycle and metastasis related molecules; conditions: HepG2, 4 μM, 24 hours; for down-regulation of Cyclin B1 (CCNB1) mRNA level / down-regulation of Cyclin D1 (CCND1) mRNA level: relative to actin gene
Description: HepG2 liver cancer cells were seeded in a 6-well plate, with 1×10^6 cells per well, and treated with the compounds IY210216D-1 and ID210203C-1 (in 0 and 4 μM concentrations) for 24 h; total RNA was extracted from the HepG2 liver cancer cells by a single-step TRIzol method; the concentration and purity of the total RNA was measured; the total RNA was used as a template; and complementary DNA (cDNA) was synthesized from the RNA template according to the instruction of a reverse transcription kit (Promega); sqRT-PCR and qPCR were used to quantify the expression of the genes CCNB1, CDK1 and SQSTM; and the gene ACTB was used as an internal reference gene for gene expression normalization.
A20 μL reaction mix for qPCR contained: • 2 μL of cDNA; • 10 μL of 2×SYBR Green Supermix; • 1 μL of upstream and downstream primers; • 0.3 μL of reference dye; • 6.7 μL of water. • Each sample has three technical replicates. • Cycling conditions comprised: • pre-denaturation at 95° C. for 5 min; • denaturation at 95° C. for 15 sec; • annealing at 60° C. for 15 sec; and • extension at 72° C. for 30 sec.
After 40 cycles, the cycle […] (CT) value of the […] gene was used as an initial value in comparison with the amount of the amplified product.

[7] = system: MDA-MB-468 cells; experiment: Apoptosis by Annexin V-FITC/PI flow cytometry, MDA-MB-468
Description: as §2, §3

O=C(NCc1ccncc1)Nc1ccc(OCc2ccc(OCCN3CCCCC3)cc2)c2ccccc12 [ID210203C-1]
inhibitory effect on the proliferation of tumor cells [1]: good inhibitory effects
expression level of CyclinD1 [2]: significantly inhibit
expression level of p-JAK2 [2]: significantly inhibit
expression level of p-STAT3 [2]: significantly inhibit
G1 phase ratio [3]: significant decrease
G2 phase ratio [3]: significant increase
G1 phase ratio [4]: decrease
S phase ratio [4]: significant increase
induction of apoptosis [5]: increased apoptosis in a dose-dependent manner
expression of MMP9 at mRNA level [6]: down-regulating
down-regulation of Cyclin B1 (CCNB1) mRNA level [6]: ~10 folds
down-regulation of Cyclin D1 (CCND1) mRNA level [6]: ~10 folds

O=C(Nc1ccc(OCc2ccc(OCCN3CCCCC3)cc2)c2ccccc12)NC1CCOCC1 [IY210216D-1]
inhibitory effect on the proliferation of tumor cells [1]: good inhibitory effects
G1 phase ratio [3]: significant decrease
G2 phase ratio [3]: significant increase
G1 phase ratio [4]: decrease
S phase ratio [4]: significant increase
induction of apoptosis [5]: increased apoptosis in a dose-dependent manner
expression of MMP9 at mRNA level [6]: down-regulating
down-regulation of Cyclin B1 (CCNB1) mRNA level [6]: ~10 folds
down-regulation of Cyclin D1 (CCND1) mRNA level [6]: ~10 folds

O=C(NCc1ccccn1)Nc1ccc(OCc2ccc(OCCN3CCCCC3)cc2)c2ccccc12 [IY210316B-1, 1-(4-((4-(2-(piperidin-1-yl)ethoxy)benzyl)oxy)naphthalen-1-yl)-3-(pyridin-2-ylmethyl)urea]
inhibitory effect on the proliferation of tumor cells [1]: good inhibitory effects
apoptosis of breast cancer cells ([7]; 0.12 μM, 48 hours): 43.86%
induction of apoptosis ([7]; MDA-MB-468, 0 and 0.12 μM, 48 h, vs control group): increased apoptosis in a dose-dependent manner
